Here are results for 1 compound from publication PMC5218480 (PLoS ONE, 2017).

This experiment has as its system MV-4-11 cells. Put plainly: Gene expression microarray analysis (Affymetrix PrimeView) and GSEA. It is filed as cell-based, human. More on the design: RFU PODN (11730768_x_at) / Fold change /veh PODN (11730768_x_at) / RFU LINC00158 (11744669_a_at) / Fold change /veh LINC00158 (11744669_a_at) / RFU DUSP10 (11751237_a_at) / Fold change /veh DUSP10 (11751237_a_at) / RFU ID3 (11757404_x_at) / Fold change /veh ID3 (11757404_x_at) / RFU PLEKHG5 (11737974_s_at) / Fold change /veh PLEKHG5 (11737974_s_at) / RFU LRRC4B (11730491_at) / Fold change /veh LRRC4B (11730491_at) / RFU GIMAP4 (11747438_a_at) / Fold change /veh GIMAP4 (11747438_a_at) / RFU KRT8 (11758183_x_at) / Fold change /veh KRT8 (11758183_x_at) / RFU CNN1 (11734310_a_at) / Fold change /veh CNN1 (11734310_a_at) / RFU VPS37D (11726825_at) / Fold change /veh VPS37D (11726825_at) / RFU C10orf10 (11716522_x_at) / Fold change /veh C10orf10 (11716522_x_at) / RFU KIR2DL2 /// KIR2DL4 /// KIR2DL5A /// KIR2DL5B /// KIR2DS1 /// KIR2DS2 /// KIR2DS3 /// KIR2DS4 /// KIR3DL3 /// KIR3DL3 /// KIR3DS1 (11738374_at) / Fold change /veh KIR2DL2 /// KIR2DL4 /// KIR2DL5A /// KIR2DL5B /// KIR2DS1 /// KIR2DS2 /// KIR2DS3 /// KIR2DS4 /// KIR3DL3 /// KIR3DL3 /// KIR3DS1 (11738374_at) / RFU C1QL1 (11718748_at) / Fold change /veh C1QL1 (11718748_at) / RFU TMPRSS4 (11747572_a_at) / Fold change /veh TMPRSS4 (11747572_a_at) / RFU HAMP (11756126_x_at) / Fold change /veh HAMP (11756126_x_at) / RFU RNFT2 (11725882_a_at) / Fold change /veh RNFT2 (11725882_a_at) / RFU NR4A2 (11747474_a_at) / Fold change /veh NR4A2 (11747474_a_at) / RFU ABCC12 (11746883_a_at) / Fold change /veh ABCC12 (11746883_a_at) / RFU TMEM136 (11760407_x_at) / Fold change /veh TMEM136 (11760407_x_at) / RFU CLDN22 /// WWC2 (11732394_at) / Fold change /veh CLDN22 /// WWC2 (11732394_at) / RFU HLA-DPB1 (11760878_x_at) / Fold change /veh HLA-DPB1 (11760878_x_at) / RFU SPINT1 (11716480_a_at) / Fold change /veh SPINT1 (11716480_a_at) / RFU GAP43 (11754022_s_at) / Fold change /veh GAP43 (11754022_s_at) / RFU A4GNT (11735810_at) / Fold change /veh A4GNT (11735810_at) / RFU PRB3 (11715151_x_at) / Fold change /veh PRB3 (11715151_x_at) / RFU TUBB4B (11761932_at) / Fold change /veh TUBB4B (11761932_at) / RFU CAPN14 (11732068_a_at) / Fold change /veh CAPN14 (11732068_a_at) / RFU TMCC2 (11721928_a_at) / Fold change /veh TMCC2 (11721928_a_at) / RFU IRGQ (11745062_a_at) / Fold change /veh IRGQ (11745062_a_at) / RFU FAM174B (11720279_a_at) / Fold change /veh FAM174B (11720279_a_at) / RFU TMPRSS4 (11748680_a_at) / Fold change /veh TMPRSS4 (11748680_a_at) / RFU FAM212B (11763350_a_at) / Fold change /veh FAM212B (11763350_a_at) / RFU PLEKHG5 (11743358_a_at) / Fold change /veh PLEKHG5 (11743358_a_at) / RFU ZSCAN30 (11745921_a_at) / Fold change /veh ZSCAN30 (11745921_a_at) / RFU CMKLR1 (11741424_a_at) / Fold change /veh CMKLR1 (11741424_a_at) / RFU LOC101060620 /// MAPK8IP1 (11723275_at) / Fold change /veh LOC101060620 /// MAPK8IP1 (11723275_at) / RFU SPTSSB (11747773_x_at) / Fold change /veh SPTSSB (11747773_x_at) / RFU PRSS12 (11739890_at) / Fold change /veh PRSS12 (11739890_at) / RFU BIN1 (11741810_x_at) / Fold change /veh BIN1 (11741810_x_at) / RFU WNT11 (11732464_a_at) / Fold change /veh WNT11 (11732464_a_at) / RFU C10orf10 (11716521_a_at) / Fold change /veh C10orf10 (11716521_a_at) / RFU C5orf56 (11738089_at) / Fold change /veh C5orf56 (11738089_at) / RFU CYB561 (11721691_x_at) / Fold change /veh CYB561 (11721691_x_at) / RFU ANKRD19P (11752326_a_at) / Fold change /veh ANKRD19P (11752326_a_at) / RFU OR2T12 /// OR2T33 /// OR2T8 (11738714_s_at) / Fold change /veh OR2T12 /// OR2T33 /// OR2T8 (11738714_s_at) / RFU VCAN (11748164_a_at) / Fold change /veh VCAN (11748164_a_at) / RFU JSRP1 (11732532_at) / Fold change /veh JSRP1 (11732532_at) / RFU KRTAP10-11 (11738290_x_at) / Fold change /veh KRTAP10-11 (11738290_x_at) / RFU MYO3A (11730013_a_at) / Fold change /veh MYO3A (11730013_a_at) / RFU EBF3 (11725865_a_at) / Fold change /veh EBF3 (11725865_a_at) / RFU CAMK2N1 (11719241_x_at) / Fold change /veh CAMK2N1 (11719241_x_at) / RFU C5orf56 (11738088_a_at) / Fold change /veh C5orf56 (11738088_a_at) / RFU OLFML3 (11715873_a_at) / Fold change /veh OLFML3 (11715873_a_at) / RFU LOC100653217 /// NTM (11731650_a_at) / Fold change /veh LOC100653217 /// NTM (11731650_a_at) / RFU MAPK11 (11762145_a_at) / Fold change /veh MAPK11 (11762145_a_at) / RFU FIZ1 (11724087_x_at) / Fold change /veh FIZ1 (11724087_x_at) / RFU OASL (11726364_x_at) / Fold change /veh OASL (11726364_x_at) / RFU SOX15 (11748057_x_at) / Fold change /veh SOX15 (11748057_x_at) / RFU CD79A (11719716_a_at) / Fold change /veh CD79A (11719716_a_at) / RFU HIST1H1D (11736915_at) / Fold change /veh HIST1H1D (11736915_at) / RFU CASKIN2 (11723855_a_at) / Fold change /veh CASKIN2 (11723855_a_at) / RFU LOC730098 (11760151_x_at) / Fold change /veh LOC730098 (11760151_x_at) / RFU OR4N2 (11742367_at) / Fold change /veh OR4N2 (11742367_at) / RFU PRRT2 (11749266_a_at) / Fold change /veh PRRT2 (11749266_a_at) / RFU SNX32 (11753110_a_at) / Fold change /veh SNX32 (11753110_a_at) / RFU CDHR5 (11726645_a_at) / Fold change /veh CDHR5 (11726645_a_at) / RFU RCAN1 (11760418_a_at) / Fold change /veh RCAN1 (11760418_a_at) / RFU FAM167A (11723789_a_at) / Fold change /veh FAM167A (11723789_a_at) / RFU FAM26E (11764081_at) / Fold change /veh FAM26E (11764081_at) / RFU ISYNA1 (11749810_s_at) / Fold change /veh ISYNA1 (11749810_s_at) / RFU ACY1 (11761880_at) / Fold change /veh ACY1 (11761880_at) / RFU 11764098_at / Fold change /veh 11764098_at / RFU SAMD14 (11745864_x_at) / Fold change /veh SAMD14 (11745864_x_at) / RFU NPB (11741838_a_at) / Fold change /veh NPB (11741838_a_at) / RFU TMPRSS6 (11731388_a_at) / Fold change /veh TMPRSS6 (11731388_a_at) / RFU KRTAP10-2 (11738614_at) / Fold change /veh KRTAP10-2 (11738614_at) / RFU ARHGAP8 /// PRR5-ARHGAP8 (11727945_x_at) / Fold change /veh ARHGAP8 /// PRR5-ARHGAP8 (11727945_x_at) / RFU KRTAP5-7 /// NADSYN1 (11734609_at) / Fold change /veh KRTAP5-7 /// NADSYN1 (11734609_at) / RFU RASL12 (11751679_a_at) / Fold change /veh RASL12 (11751679_a_at) / RFU CDKN2B (11736163_a_at) / Fold change /veh CDKN2B (11736163_a_at) / RFU PRF1 (11729649_at) / Fold change /veh PRF1 (11729649_at) / RFU, ZNF638 /// ZNF638-IT1 / Fold change vs veh, ZNF638 /// ZNF638-IT1 / RFU, PANK3 / Fold change vs veh, PANK3 / RFU, SH3YL1 / Fold change vs veh, SH3YL1 / RFU, ZEB2 / Fold change vs veh, ZEB2 / RFU, NRIP1 / Fold change vs veh, NRIP1 / RFU, PTTG1IP / Fold change vs veh, PTTG1IP / RFU, CAPN2 / Fold change vs veh, CAPN2 / RFU, MED14 / Fold change vs veh, MED14 / RFU, SNORA58 / Fold change vs veh, SNORA58 / RFU, C1orf63 / Fold change vs veh, C1orf63 / RFU, LRRFIP1 / Fold change vs veh, LRRFIP1 / RFU, NDUFAF7 / Fold change vs veh, NDUFAF7 / RFU, SLC12A2 / Fold change vs veh, SLC12A2 / RFU, IBTK / Fold change vs veh, IBTK / RFU, ESF1 / Fold change vs veh, ESF1 / Fold change vs veh, TMEM50B / RFU, TAOK1 / Fold change vs veh, TAOK1 / RFU, ACBD3 / Fold change vs veh, ACBD3 / RFU, TMA16 / Fold change vs veh, TMA16 / RFU, RWDD3 / Fold change vs veh, RWDD3 / RFU, BCAT1 / Fold change vs veh, BCAT1 / RFU, EDEM3 / Fold change vs veh, EDEM3 / RFU, TMEM33 / Fold change vs veh, TMEM33 / RFU, WDR75 / Fold change vs veh, WDR75 / RFU, AHCTF1 / Fold change vs veh, AHCTF1 / RFU, TFRC / Fold change vs veh, TFRC / RFU, ZDHHC17 / Fold change vs veh, ZDHHC17 / RFU, NOM1 / Fold change vs veh, NOM1 / RFU, ARL8B / Fold change vs veh, ARL8B / RFU, ZBTB11 / Fold change vs veh, ZBTB11 / RFU, TAMM41 / Fold change vs veh, TAMM41 / RFU, KIAA1704 /// LOC100996395 / Fold change vs veh, KIAA1704 /// LOC100996395 / RFU, ING1 / Fold change vs veh, ING1 / RFU, TRMT61B / Fold change vs veh, TRMT61B / RFU, FUBP3 / Fold change vs veh, FUBP3 / RFU, TP53 / Fold change vs veh, TP53 / RFU, TNKS2 / Fold change vs veh, TNKS2 / RFU, ZFP14 / Fold change vs veh, ZFP14 / RFU, ACTR2 / Fold change vs veh, ACTR2 / RFU, PPP3R1 / Fold change vs veh, PPP3R1 / RFU, PIK3R1 / Fold change vs veh, PIK3R1 / RFU, HNRNPA1 / Fold change vs veh, HNRNPA1 / RFU, RNF170 / Fold change vs veh, RNF170 / RFU, ZNF28 / Fold change vs veh, ZNF28 / RFU, RNGTT / Fold change vs veh, RNGTT / RFU, OGT / Fold change vs veh, OGT / RFU, BRD1 / Fold change vs veh, BRD1 / RFU, MARS / Fold change vs veh, MARS / RFU, ZNF655 / Fold change vs veh, ZNF655 / RFU, FAHD1 / Fold change vs veh, FAHD1 / RFU, BDP1 / Fold change vs veh, BDP1 / RFU, LRRCC1 / Fold change vs veh, LRRCC1 / RFU, ARID1A / Fold change vs veh, ARID1A / RFU, ZNF146 / Fold change vs veh, ZNF146 / RFU, ZNF330 / Fold change vs veh, ZNF330 / RFU, GPN3 / Fold change vs veh, GPN3 / RFU, C9orf123 / Fold change vs veh, C9orf123 / RFU, N4BP2L2 / Fold change vs veh, N4BP2L2 / RFU, ARFIP1 / Fold change vs veh, ARFIP1 / RFU, FAM179B / Fold change vs veh, FAM179B / RFU, BCL10 / Fold change vs veh, BCL10 / RFU, UHRF1BP1L / Fold change vs veh, UHRF1BP1L / RFU, BET1 / Fold change vs veh, BET1 / RFU, CNOT2 / Fold change vs veh, CNOT2 / RFU, ZNF268 / Fold change vs veh, ZNF268 / Fold change vs veh, ZNF507 / RFU, DGCR2 / Fold change vs veh, DGCR2 / RFU, WDSUB1 / Fold change vs veh, WDSUB1 / Fold change vs veh, HSP90B1 /// MIR3652 / RFU, ADSS / Fold change vs veh, ADSS / RFU, GK / Fold change vs veh, GK / RFU, ZNF148 / Fold change vs veh, ZNF148 / RFU, TAF9 / Fold change vs veh, TAF9 / RFU, SLC1A5 / Fold change vs veh, SLC1A5 / RFU, SLMO2 / Fold change vs veh, SLMO2 / RFU, ABCC4 / Fold change vs veh, ABCC4 / RFU, LOC101060439 /// RAP1B / Fold change vs veh, LOC101060439 /// RAP1B / RFU, RFX7 / Fold change vs veh, RFX7 / RFU, GTPBP10 / Fold change vs veh, GTPBP10 / RFU, CNEP1R1 / Fold change vs veh, CNEP1R1 / RFU, BIVM-ERCC5 /// ERCC5 / Fold change vs veh, BIVM-ERCC5 /// ERCC5 / RFU, ILF3 / Fold change vs veh, ILF3 / RFU 11762660_at / Fold change /veh 11762660_at / RFU VCAN (11757783_s_at) / Fold change /veh VCAN (11757783_s_at) / RFU DDX43 (11728927_at) / Fold change /veh DDX43 (11728927_at) / RFU KRT8 (11758188_x_at) / Fold change /veh KRT8 (11758188_x_at) / RFU NKD1 (11759106_at) / Fold change /veh NKD1 (11759106_at) / RFU SRD5A1 (11742802_a_at) / Fold change /veh SRD5A1 (11742802_a_at) / RFU TPSAB1 /// TPSB2 (11721975_s_at) / Fold change /veh TPSAB1 /// TPSB2 (11721975_s_at) / RFU GSTM3 (11746129_a_at) / Fold change /veh GSTM3 (11746129_a_at) / RFU IL23R (11737362_x_at) / Fold change /veh IL23R (11737362_x_at) / RFU TMEM51 (11727254_a_at) / Fold change /veh TMEM51 (11727254_a_at) / RFU PIWIL2 (11732686_x_at) / Fold change /veh PIWIL2 (11732686_x_at) / RFU ORM1 (11744905_x_at) / Fold change /veh ORM1 (11744905_x_at) / RFU CCDC152 (11743942_at) / Fold change /veh CCDC152 (11743942_at) / RFU ECM1 (11717891_a_at) / Fold change /veh ECM1 (11717891_a_at) / RFU IL23R (11748794_a_at) / Fold change /veh IL23R (11748794_a_at) / RFU TNFAIP8L3 (11732012_x_at) / Fold change /veh TNFAIP8L3 (11732012_x_at) / RFU MBOAT4 (11741988_at) / Fold change /veh MBOAT4 (11741988_at) / RFU 11764193_at / Fold change /veh 11764193_at / RFU TMEM53 (11763286_at) / Fold change /veh TMEM53 (11763286_at) / RFU MAGEB2 (11727129_at) / Fold change /veh MAGEB2 (11727129_at) / RFU TMEM200A (11744735_a_at) / Fold change /veh TMEM200A (11744735_a_at) / RFU CCDC152 (11751479_a_at) / Fold change /veh CCDC152 (11751479_a_at) / RFU FAM211A (11726209_a_at) / Fold change /veh FAM211A (11726209_a_at) / RFU RGS16 (11746705_a_at) / Fold change /veh RGS16 (11746705_a_at) / RFU VCAN (11755009_s_at) / Fold change /veh VCAN (11755009_s_at) / RFU RHOB (11743442_s_at) / Fold change /veh RHOB (11743442_s_at) / RFU RGS16 (11720943_a_at) / Fold change /veh RGS16 (11720943_a_at) / RFU RGS16 (11720944_at) / Fold change /veh RGS16 (11720944_at) / RFU, VPS4B / Fold change vs veh, VPS4B / RFU, CREB1 / Fold change vs veh, CREB1 / RFU, DNAJC13 / Fold change vs veh, DNAJC13 / RFU, GNAQ / Fold change vs veh, GNAQ / RFU, CDK5R1 / Fold change vs veh, CDK5R1 / RFU, ZRANB3 / Fold change vs veh, ZRANB3 / RFU, CUL4A / Fold change vs veh, CUL4A / RFU, CCNY / Fold change vs veh, CCNY / RFU, UFL1 / Fold change vs veh, UFL1 / RFU, COG3 / Fold change vs veh, COG3 / RFU, DIAPH2 / Fold change vs veh, DIAPH2 / RFU, SKA2 / Fold change vs veh, SKA2 / RFU, AFF3 / Fold change vs veh, AFF3 / RFU, LMF1 / Fold change vs veh, LMF1 / RFU, IPO11 / Fold change vs veh, IPO11 / RFU, DFFB / Fold change vs veh, DFFB / RFU, FOXP1 / Fold change vs veh, FOXP1 / RFU, CARD8 / Fold change vs veh, CARD8 / RFU, STRN3 / Fold change vs veh, STRN3 / RFU, ADK / Fold change vs veh, ADK / RFU, RASSF2 / Fold change vs veh, RASSF2 / RFU, WIPF1 / Fold change vs veh, WIPF1 / RFU, LARP1B / Fold change vs veh, LARP1B / RFU, RASA1 / Fold change vs veh, RASA1 / RFU, RB1 / Fold change vs veh, RB1 / RFU, PPFIA1 / Fold change vs veh, PPFIA1 / RFU, MAT2A / Fold change vs veh, MAT2A / RFU, CCT5 / Fold change vs veh, CCT5 / RFU, WDR92 / Fold change vs veh, WDR92 / RFU, CUX1 / Fold change vs veh, CUX1 / RFU, TTC7A / Fold change vs veh, TTC7A / RFU, TMEM135 / Fold change vs veh, TMEM135 / RFU, DEPTOR / Fold change vs veh, DEPTOR / RFU, CPM / Fold change vs veh, CPM / RFU, DNAJB6 / Fold change vs veh, DNAJB6 / RFU, CACNA2D3 / Fold change vs veh, CACNA2D3 / RFU, DTX4 / Fold change vs veh, DTX4 / RFU, TFCP2 / Fold change vs veh, TFCP2 / RFU, GMCL1 /// GMCL1P1 / Fold change vs veh, GMCL1 /// GMCL1P1 / RFU, AEBP2 / Fold change vs veh, AEBP2 / RFU, SNHG1 /// SNORD22 /// SNORD25 /// SNORD26 /// SNORD27 /// SNORD28 /// SNORD29 /// SNORD31 / Fold change vs veh, SNHG1 /// SNORD22 /// SNORD25 /// SNORD26 /// SNORD27 /// SNORD28 /// SNORD29 /// SNORD31 / Fold change (Aza/veh), C12orf56 (ProbeSet 11735607_a_at) / Fold change (ACY-1035/veh), C12orf56 (ProbeSet 11735607_a_at) / Fold change (Aza/veh), FGFR1OP (ProbeSet 11751329_s_at) / Fold change (ACY-1035/veh), FGFR1OP (ProbeSet 11751329_s_at) / Fold change (Aza/veh), VPS36 (ProbeSet 11739960_a_at) / Fold change (ACY-1035/veh), VPS36 (ProbeSet 11739960_a_at) / RFU SYPL1 (11715823_x_at) / Fold change /veh SYPL1 (11715823_x_at) / RFU IGFBP7 (11715501_s_at) / Fold change /veh IGFBP7 (11715501_s_at) / RFU REEP3 (11722064_at) / Fold change /veh REEP3 (11722064_at) / RFU IGLL1 (11728026_x_at) / Fold change /veh IGLL1 (11728026_x_at): dose or concentration left out as unconfirmed. Conditions: ProbeSet 11732277_a_at; LIST D.

On to `Nc1ccc(-c2cccs2)cc1NC(=O)c1ccc2c(c1)cc(C1CC1)n2CCN1CCOCC1` [ACY-1035], for which the “Fold change vs veh, FOXP1” value turned out to be 0.94.
